Source: ChEMBL document CHEMBL1152216, “Pyrazino[1,2-b]isoquinolines: synthesis and study of their cytostatic and cytotoxic properties” (2008)
Active and inactive are the calls of the source. No cut-off for these calls is given here.

What was measured:
MDA-MB-231 [1] = test: Growth inhibition of human MDA-MB-231 cells after 48 hrs by MTT assay; type: functional; settings: MDA-MB-231, 48 h
HT-29 [2] = test: Growth inhibition of human HT-29 cells after 48 hrs by MTT assay; type: functional; settings: HT-29, 48 h
A549 [3] = test: Cytotoxicity against human A549 cells after 48 hrs by MTT assay; type: functional; settings: A549, 48 h
A549 [4] = test: Growth inhibition of human A549 cells after 48 hrs by MTT assay; type: functional; settings: A549, 48 h
HT-29 [5] = test: Cytotoxicity against human HT-29 cells after 48 hrs by MTT assay; type: functional; settings: HT-29, 48 h, read-out: LC50 (the source's name)
A549 [6] = test: Induction of apoptosis in human A549 cells at 50 uM after 48 hrs by propidium iodide staining; type: functional, cell-based
A549 [7] = test: Induction of apoptosis in human A549 cells assessed as AKT signaling pathway activation at 50 uM after 24 hrs by Western blot; type: functional, cell-based
A549 [8] = test: Induction of DNA cleavage in human A549 cells assessed as p53 Ser15 phosphorylation at 50 uM after 24 hrs by Western blot; type: functional, cell-based
A549 [9] = test: Cell cycle arrest in human A549 cells assessed as increase in accumulation at G1 phase at […] after 48 hrs by flow cytometry; type: functional, cell-based
A549 [10] = test: Induction of DNA cleavage in human A549 cells assessed as H2AX phosphorylation at 50 uM after 24 hrs by Western blot; type: functional, cell-based
A549 [11] = test: Induction of apoptosis in human A549 cells assessed as JNK activation at 50 uM after 24 hrs by Western blot; type: functional, cell-based
A549 [12] = test: Induction of DNA cleavage in human A549 cells assessed as CHK2 Ser19 phosphorylation at 50 uM after 24 hrs by Western blot; type: functional, cell-based
A549 [13] = test: Induction of apoptosis in human A549 cells assessed as p38 activation at 50 uM after 24 hrs by Western blot; type: functional, cell-based
A549 [14] = test: Cell cycle arrest in human A549 cells assessed as decrease in accumulation at G2/M phase at […] after 48 hrs by flow cytometry; type: functional, cell-based
A549 [15] = test: Cell cycle arrest in human A549 cells assessed as decrease in accumulation at G1 phase at […] after 48 hrs by flow cytometry; type: functional, cell-based
MDA-MB-231 [16] = test: Cytotoxicity against human MDA-MB-231 cells after 48 hrs by MTT assay; type: functional; settings: MDA-MB-231, 48 h, read-out: LC50 (the source's name)

Row | SMILES | GI50 (MDA-MB-231 [1]) [µM] | GI50 (HT-29 [2]) [µM] | LC50 (A549 [3]) [µM] | GI50 (A549 [4]) [µM] | TGI (A549 [4]) [µM] | TGI (HT-29 [2]) [µM] | CC50 (HT-29 [5]) [µM] | Activity (A549 [6]) | Activity (A549 [7]) | Activity (A549 [8]) | Activity (A549 [9]) | Activity (A549 [10]) | Activity (A549 [11]) | Activity (A549 [12]) | Activity (A549 [13]) | Activity (A549 [14]) | Activity (A549 [15]) | TGI (MDA-MB-231 [1]) [µM] | CC50 (MDA-MB-231 [16]) [µM]
1 | COc1c(C)c(OC)c(OC)c2c1C=C1CN(C)CC(=O)N1[C@H]2CN1Cc2ccccc2C1=O | 11.9 | 3.67 |  |  |  |  |  |  |  |  |  |  |  |  |  |  |  |  | 
2 | COc1c(C)c(OC)c(OC)c2c1C[C@H]1CNCC(=O)N1[C@H]2COCc1ccccc1 (relative stereo) |  |  | > 23.4 | 13.4 | > 23.4 |  |  |  |  |  |  |  |  |  |  |  |  |  | 
3 | COc1c(C)c(OC)c(OC)c2c1C[C@H]1CN(C)CC(=O)N1[C@H]2COCc1ccccc1 (relative stereo) |  |  | > 22.7 | 12.7 | > 22.7 |  |  |  |  |  |  |  |  |  |  |  |  |  | 
4 | COc1c(C)c(OC)c(OC)c2c1C[C@@H]1CN(C(=O)OC(C)C)CC(=O)N1[C@H]2COCc1ccccc1 (relative stereo) |  | 10.5 |  | 8.19 | 16.8 |  |  |  |  |  |  |  |  |  |  |  |  |  | 
5 | COc1c(C)c(OC)c(OC)c2c1C[C@H]1CN(C(=O)OC(C)C)CC(=O)N1[C@H]2COCc1ccccc1 (relative stereo) | 1.09 | 0.195 |  | 0.449 | 1.89 | 0.273 | 0.527 |  |  |  |  |  |  |  |  |  |  |  | 
6 | COc1c(C)c(OC)c(OC)c2c1C[C@H]1CN(C(=O)OC(C)C)CC(=O)N1[C@H]2COC(=O)/C=C/c1ccccc1 (relative stereo) |  | 9.23 |  | 9.05 |  |  |  | Active | inactive | inactive | Active | inactive | inactive | inactive | inactive | Active |  |  | 
7 | COc1c(C)c(OC)c(OC)c2c1C[C@H]1[C@@H](O)N(C(=O)OC(C)C)CC(=O)N1[C@H]2COCc1ccccc1 (relative stereo) | 9.27 | 8.32 | 17.4 | 5.68 | 11.7 | 9.84 |  | Active | inactive | inactive |  | inactive | inactive | inactive | inactive | Active | Active | 15.3 | 
8 | COc1c(C)c(OC)c(OC)c2c1C[C@H]1[C@H](C#N)N3C([C@@H]4O[C@H]5c6ccccc6[C@H](C#N)N5C[C@H]3c3c(OC)c(OC)c(C)c(OC)c34)[C@@H]2N1C (relative stereo) | 11.4 | 7.35 | 12.7 | 11.4 | 12 | 8.22 | 10.2 |  | inactive | inactive |  | inactive | inactive | inactive | inactive |  |  | 12 | 12.8
9 | COc1c(C)c(OC)c2c(c1OC)[C@@H]1CN3C(=O)c4ccccc4[C@@H]3O[C@H]2C2=CN(C(=O)OC(C)C)CC(=O)N21 (relative stereo) |  | 10.4 |  | 2.91 |  |  |  |  |  |  |  |  |  |  |  |  |  |  | 
10 | COc1c(C)c(OC)c(OC)c2c1C[C@H]1[C@@H](O)N(C(=O)OC(C)(C)C)CC(=O)N1[C@H]2COCc1ccccc1 (relative stereo) | 12 | 14.4 | > 18.4 | 4.79 | 17.5 | > 18.4 | > 18.4 |  |  |  |  |  |  |  |  |  |  | > 18.4 | > 18.4
11 | COc1cc2c(cc1O)CCN[C@]21CS[C@@H]2c3c(OC(C)=O)c(C)c4c(c3[C@H](COC1=O)N1[C@@H]2[C@H]2c3c(cc(C)c(OC)c3O)C[C@@H]([C@@H]1O)N2C)OCO4 [TRABECTEDIN] | 0.0551 | 0.0517 |  | 0.125 | 0.131 | 0.063 |  |  |  |  |  |  |  |  |  |  |  | 0.0578 | 
